According to patent US6783539B1, “Phototriggerable, collagen-crosslinking compounds for wound closure” (University of Kansas Medical Center, priority 2001, dated 2004):

Test: Photoactivated welding of rabbit Achilles tendon pieces, tensile strength by tensiometer
Conditions: mixture of 1.2 M DPD and 1.2 M DEDA in DMSO between two tendon pieces, 2 W, 500 sec (1,000 J)
Protocol: A rabbit Achilles tendon, previously stored at −70° C., was dissected from the remaining muscle, cleaned of fascia and muscle, and divided in half along its length.
One tendon piece was placed diagonally on a fused silica (UV transparent) glass slide and several drops of the mixture was placed in the center of the tendon piece. The other tendon piece was placed on top, forming an “X” shape with the mixture in between the two pieces at their intersection. Another identical slide was placed on top and light pressure was applied to the two slides.
The tendons and slides were then placed beneath a liquid light guide that delivered light from a filtered mercury-arc light source (320-500 nm, 2 W) and exposed for 500 sec (1,000 J).
After light exposure, the tendons were removed from the slide and placed on an illuminated grid beneath a CCD camera with a macro lens. An image of the overlapped (i.e. “welded”) area was digitized and stored. Measurement of the overlapped area was made using standard computer software.
The welded tendon was then placed in a tensiometer to measure tensile strength. One tendon end was clamped and attached to a strain gauge, while the opposite end of the other tendon clamped to a block moved by a lead screw.
The maximum force tolerated by the bonded tendon before breaking was divided by the bonded area to calculate the Maximum Stress in Newtons/cm^2.

SMILES: [N-]=[N+]=CC(=O)C(=O)NCCOCCOCCNC(=O)C(=O)C=[N+]=[N-] [DPD, N,N′-bis(3-diazapynivoyl)-2,2′-(ethylenedioxy)bis(ethylamine)]
- Observation of tendon welding after light exposure (320-500 nm): welded together
- Maximum Stress (maximum force tolerated by the bonded tendon before breaking divided by the bonded area) (filtered mercury-arc light 320-500 nm): 31.7 N/cm^2
